Assay results as given in US12660819B2, “Herbicidal derivatives” (SYNGENTA CROP PROTECTION AG, priority 2020, dated 2026).

Legend:
Format in all cases: in vivo
[1] = test system: Echinochloa crus-galli (ECHCG); assay: Pre-emergence Test (glasshouse, percentage damage to the plant); conditions: 1000 g/ha unless otherwise stated; for percentage damage to the plant, ECHCG: five-point scale; for percentage damage to the plant, ECHCG (five-point scale): Echinochloa crus-galli
[2] = test system: Abutilon theophrasti (ABUTH); assay: as above; conditions: 1000 g/ha unless otherwise stated; for percentage damage to the plant, ABUTH: five-point scale; for percentage damage to the plant, ABUTH (five-point scale): Abutilon theophrasti
Zea mays (ZEAMX) [3] = assay: as above; conditions: 1000 g/ha unless otherwise stated; for percentage damage to the plant, ZEAMX: five-point scale; for percentage damage to the plant, ZEAMX (five-point scale): Zea mays
[4] = test system: Ipomoea hederacea (IPOHE); assay: as above; conditions: 1000 g/ha unless otherwise stated; for percentage damage to the plant, IPOHE: five-point scale; for percentage damage to the plant, IPOHE (five-point scale): Ipomoea hederacea
[5] = test system: Amaranthus retoflexus (AMARE); assay: as above; conditions: 1000 g/ha unless otherwise stated; for percentage damage to the plant, AMARE: five-point scale; for percentage damage to the plant, AMARE (five-point scale): Amaranthus retoflexus
Setaria faberi (SETFA) [6] = assay: as above; conditions: 1000 g/ha unless otherwise stated; for percentage damage to the plant, SETFA: five-point scale; for percentage damage to the plant, SETFA (five-point scale): Setaria faberi
[7] = test system: Ipomoea hederacea (IPOHE); assay: Post-emergence Test (glasshouse, percentage damage to the plant); conditions: 1000 g/ha unless otherwise stated, evaluated after 13 days; for Post-emergence Test IPOHE, percentage damage to the plant (five-point scale): post-emergence spray; for IPOHE, percentage damage caused to the plant (five-point scale): post-emergence
Outline: (§1)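 Seeds are sown in standard soil under controlled glasshouse conditions. The pots are then sprayed at 1000 g/ha, unless otherwise stated, with compound in acetone/water (50:50) containing 0.5% Tween 20. After 13 days further growth, percentage plant damage is scored from 1 (0-20%) to 5 (81-100%).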

[8] = test system: Amaranthus retoflexus (AMARE); assay: as above; conditions: 1000 g/ha unless otherwise stated, evaluated after 13 days; for Post-emergence Test AMARE, percentage damage to the plant (five-point scale): post-emergence spray; for AMARE, percentage damage caused to the plant (five-point scale): post-emergence
Outline: (§2)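 Damage was rated 13 days after treatment and expressed on a five-point scale: 5=81-100%, 4=61-80%, 3=41-60%, 2=21-40%, 1=0-20%. Spray was applied at 1000 g/ha unless otherwise stated, from acetone/water (50:50) with 0.5% Tween 20, to sown pots.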

Setaria faberi (SETFA) [9] = assay: as above; conditions: 1000 g/ha unless otherwise stated, evaluated after 13 days; for Post-emergence Test SETFA, percentage damage to the plant (five-point scale): post-emergence spray; for SETFA, percentage damage caused to the plant (five-point scale): post-emergence
Outline: as §1

[10] = test system: Echinochloa crus-galli (ECHCG); assay: as above; conditions: post-emergence spray, 1000 g/ha unless otherwise stated, evaluated after 13 days
Outline: as §2

[11] = test system: Abutilon theophrasti (ABUTH); assay: as above; conditions: 1000 g/ha unless otherwise stated, evaluated after 13 days; for Post-emergence Test ABUTH, percentage damage to the plant (five-point scale): post-emergence spray; for ABUTH, percentage damage caused to the plant (five-point scale): post-emergence
Outline: as §2

Zea mays (ZEAMX) [12] = assay: as above; conditions: 1000 g/ha unless otherwise stated, evaluated after 13 days; for Post-emergence Test ZEAMX, percentage damage to the plant (five-point scale): post-emergence spray; for ZEAMX, percentage damage caused to the plant (five-point scale): post-emergence
Outline: as §1

CCn1c(C)c(-c2cc(F)c(OC)c(F)c2)c(=O)c(C(=O)O)c1-c1ccc(Cl)c(Cl)c1 [Compound 84, 2-(3,4-dichlorophenyl)-5-(3,5-difluoro-4-methoxy-phenyl)-1-ethyl-6-methyl-4-oxo-pyridine-3-carboxylic acid]
2 (2=21-40%): Post-emergence Test AMARE, percentage damage to the plant (five-point scale) [8]
3 (3=41-60%): percentage damage to the plant, ABUTH [2] | percentage damage to the plant, IPOHE [4] | Post-emergence Test IPOHE, percentage damage to the plant (five-point scale) [7] | Post-emergence Test SETFA, percentage damage to the plant (five-point scale) (Setaria faberi (SETFA) [9]) | Post-emergence Test ABUTH, percentage damage to the plant (five-point scale) [11]
4 (4=61-80%): percentage damage to the plant, SETFA (Setaria faberi (SETFA) [6])
1 (1=0-20%): percentage damage to the plant, ECHCG [1] | percentage damage to the plant, ZEAMX (Zea mays (ZEAMX) [3]) | percentage damage to the plant, AMARE [5] | Post-emergence Test ECHCG, percentage damage to the plant (five-point scale) [10] | Post-emergence Test ZEAMX, percentage damage to the plant (five-point scale) (Zea mays (ZEAMX) [12])

CCn1c(C)c(-c2ccc(Cl)cc2F)c(=O)c(C(=O)O)c1-c1ccc(Cl)c(Cl)c1 [Compound 153, 5-(4-chloro-2-fluoro-phenyl)-2-(3,4-dichlorophenyl)-1-ethyl-6-methyl-4-oxo-pyridine-3-carboxylic acid]
5 (5=81-100%): percentage damage to the plant, ECHCG [1] | percentage damage to the plant, ABUTH [2] | percentage damage to the plant, AMARE [5] | percentage damage to the plant, SETFA (Setaria faberi (SETFA) [6]) | Post-emergence Test IPOHE, percentage damage to the plant (five-point scale) [7] | Post-emergence Test AMARE, percentage damage to the plant (five-point scale) [8] | Post-emergence Test SETFA, percentage damage to the plant (five-point scale) (Setaria faberi (SETFA) [9]) | Post-emergence Test ECHCG, percentage damage to the plant (five-point scale) [10] | Post-emergence Test ABUTH, percentage damage to the plant (five-point scale) [11] | Post-emergence Test ZEAMX, percentage damage to the plant (five-point scale) (Zea mays (ZEAMX) [12])
4 (4=61-80%): percentage damage to the plant, ZEAMX (Zea mays (ZEAMX) [3]) | percentage damage to the plant, IPOHE [4]

CCn1c(C)c(-c2ccc(Cl)c(F)c2)c(=O)c(C(=O)O)c1-c1ccc(Cl)cc1 [Compound 201, 5-(4-chloro-3-fluoro-phenyl)-2-(4-chlorophenyl)-1-ethyl-6-methyl-4-oxo-pyridine-3-carboxylic acid]
0: percentage damage to the plant, ZEAMX (five-point scale) (Zea mays (ZEAMX) [3]) | percentage damage to the plant, IPOHE (five-point scale) [4]
3 (3=41-60%): percentage damage to the plant, ECHCG (five-point scale) [1] | percentage damage to the plant, SETFA (five-point scale) (Setaria faberi (SETFA) [6]) | SETFA, percentage damage caused to the plant (five-point scale) (Setaria faberi (SETFA) [9])
4 (4=61-80%): ABUTH, percentage damage caused to the plant (five-point scale) [11]
2 (2=21-40%): percentage damage to the plant, ABUTH (five-point scale) [2] | AMARE, percentage damage caused to the plant (five-point scale) [8] | ZEAMX, percentage damage caused to the plant (five-point scale) (Zea mays (ZEAMX) [12])
1 (1=0-20%): percentage damage to the plant, AMARE (five-point scale) [5] | IPOHE, percentage damage caused to the plant (five-point scale) [7]

CCn1c(C)c(-c2ccc(Cl)cc2)c(=O)c(C(=O)O)c1-c1ccc(Cl)cc1 [Compound 138, 2,5-bis(4-chlorophenyl)-1-ethyl-6-methyl-4-oxo-pyridine-3-carboxylic acid]
3 (3=41-60%): percentage damage to the plant, ECHCG [1] | percentage damage to the plant, ABUTH [2] | Post-emergence Test SETFA, percentage damage to the plant (five-point scale) (Setaria faberi (SETFA) [9]) | Post-emergence Test ABUTH, percentage damage to the plant (five-point scale) [11]
2 (2=21-40%): Post-emergence Test ECHCG, percentage damage to the plant (five-point scale) [10]
0: Post-emergence Test ZEAMX, percentage damage to the plant (five-point scale) (Zea mays (ZEAMX) [12])
5 (5=81-100%): percentage damage to the plant, AMARE [5] | percentage damage to the plant, SETFA (Setaria faberi (SETFA) [6])
1 (1=0-20%): percentage damage to the plant, ZEAMX (Zea mays (ZEAMX) [3]) | percentage damage to the plant, IPOHE [4] | Post-emergence Test IPOHE, percentage damage to the plant (five-point scale) [7] | Post-emergence Test AMARE, percentage damage to the plant (five-point scale) [8]

CCn1c(CCOC)c(-c2ccc(Cl)cc2)c(=O)c(C(=O)OC)c1-c1ccc(Cl)c(Cl)c1 [Compound 202, methyl 5-(4-chlorophenyl)-2-(3,4-dichlorophenyl)-1-ethyl-6-(2-methoxyethyl)-4-oxo-pyridine-3-carboxylate]
0: percentage damage to the plant, ECHCG (five-point scale) [1] | percentage damage to the plant, ABUTH (five-point scale) [2] | percentage damage to the plant, ZEAMX (five-point scale) (Zea mays (ZEAMX) [3]) | percentage damage to the plant, IPOHE (five-point scale) [4] | percentage damage to the plant, AMARE (five-point scale) [5] | percentage damage to the plant, SETFA (five-point scale) (Setaria faberi (SETFA) [6]) | AMARE, percentage damage caused to the plant (five-point scale) [8] | SETFA, percentage damage caused to the plant (five-point scale) (Setaria faberi (SETFA) [9]) | ABUTH, percentage damage caused to the plant (five-point scale) [11]
1 (1=0-20%): IPOHE, percentage damage caused to the plant (five-point scale) [7] | ZEAMX, percentage damage caused to the plant (five-point scale) (Zea mays (ZEAMX) [12])
